Laboratory results: publication PMC9457533, “Study on Metronidazole Acid-Base Behavior and Speciation with Ca^2+ for Potential Applications in Natural Waters” (Molecules, 2022)
Where “and” joins values, the source holds several entries; their conditions need not be identical. Equal values may be shown once.

Legend:
[1] = Potentiometric titrations: protonation constants of MNZ in NaCl; type: physicochemical; conditions: for logβ^H2L: 2H + L = H2L; for logβ^HL: H + L = HL; for logβ average value: I = 0.15 mol L^-1, average of 1H-NMR, UV; for logK^H2L: LH + H = H2L
From the text: The knowledge of the protonation constants of a ligand is crucial to defining the ionization state which influences several characteristics, such as aqueous solubility, and complexation ability. The equilibrium reactions associated with the protonation constant values are the following, where the charges are omitted for simplicity and MNZ was indicated as L: iH + L = HiL β^H^iL(1) H + Hi−1L = HiL K^H^iL(2)
The potentiometric titrations were employed by Metrohm-Titrando 809 automated potentiometer with a combined glass electrode ORION, type Ross 8102SC and a Metrohm Dosino 800 automatic dispenser. The titrations were performed in cells with a capacity of 25 mL, characterized by a double wall inside which thermostated water circulates. The cells were connected to a thermostat model D1-G Haake. During the measurements, pure N2 was bubbled to avoid CO2 and O2 in solution. The system is interfaced to a PC through the Metrohm TIAMO 2.0 software, which automatically acquires the mL/mV pairs. It can control several parameters, such as e.m.f. stability, titrant delivery, and data acquisition. Estimated accuracy of this apparatus is ±0.15 mV and ±0.002 mL for e.m.f. and for readings of titrant volume. The acid-base titrations were carried out first on 25 mL solutions containing L, HCl, and NaCl as supporting electrolytes at different temperatures and ionic strength conditions. Various potentiometric titrations are performed on 25 mL containing Ca^2+-L in different ratios, in NaCl at t = 15, 25, and 37 °C and I = 0.15, 0.5 and […]. The solutions were titrated using standard NaOH solution. A calibration was associated with each measurement by titration with NaOH of a solution containing HCl, NaCl, and H2O, in order to calculate the standard electrode potential (E^0) and the pKw values.
(§1) The protonation constant of MNZ (L), formation constant values of Ca^2+(M)-MNZ (L), and titration parameters (analytical concentration of the reagents, standard potential E^0, junction potential) were determined by using BSTAC and STACO programs. LIANA program has provided the parameters characterizing the dependence of the protonation and formation constant values on the temperature and ionic strength. More details on software are present in ref. [59]. ^1H NMR data were processed by HypNMR software, which allows for calculating protonation and formation constant values and the individual chemical shift of species through the observed signals and assuming fast mutual exchange in the NMR time scale. UV-Vis data are processed by the HypSpec program, which allows refining of the protonation and formation constant as well as the molar absorption coefficient values (ε) of the species. The speciation diagrams and the formation percentage of the species are determined by the Hyss program.

[2] = Dependence of Ca^2+-MNZ formation constant on temperature (van't Hoff equation), thermodynamic parameters; type: physicochemical; conditions: Ca + LH = CaLH; t = 298.15 K, I = 0.15 mol L^-1 NaCl
Procedure: The protonation and formation constants values acquired at the three different temperatures of 15, 25, and 37 °C, listed in Table 1, were used to study their dependence on temperature, as already shown for several systems. The data obtained by the potentiometric measurements were analyzed using the following van’t Hoff equation:logβT = logβθ + ΔH^0(1/θ − 1/T) R ln 10(6) where logβT is the stability constant at a certain temperature (expressed in kelvin), while logβθ is the stability constant at t = 298.15 K, and R is the universal gas constant expressed as 8.314 J K^−1 mol^−1. Using the equation just reported, it was possible to calculate the protonation and formation enthalpies change values, together with Gibbs free energy and entropy changes.
as §1

[3] = t = 15 °C, I = 0.15 mol L^-1 NaCl
[4] = t = 15 °C, I = 0.5 mol L^-1 NaCl
[5] = t = 15 °C, I = 0.97 mol L^-1 NaCl
[6] = t = 25 °C, I = 0.5 mol L^-1 NaCl
[7] = t = 25 °C, I = 0.96 mol L^-1 NaCl
[8] = t = 37 °C, I = 0.14 mol L^-1 NaCl
[9] = t = 37 °C, I = 0.5 mol L^-1 NaCl
[10] = t = 37 °C, I = 0.96 mol L^-1 NaCl

logβ^H2L [1, 3]: 14.559(5) ^4
logβ^H2L [1, 4]: 14.833(4)
logβ^H2L [1, 5]: 14.877(7)
logβ^H2L ([1]; t = 25 °C, I = 0.15 mol L^-1 NaCl, potentiometry): 14.130(4)
logβ^H2L [1, 6]: 15.18(4)
logβ^H2L [1, 7]: 15.05(6)
logβ^H2L [1, 8]: 14.27(8)
logβ^H2L [1, 9]: 14.75(8)
logβ^H2L [1, 10]: 14.601(8)
logβ^HL [1, 3]: 12.00(1) ^4
logβ^HL [1, 4]: 12.180(8)
logβ^HL [1, 5]: 12.12(1)
logβ^HL [1, 6]: 12.51(4)
logβ^HL [1, 7]: 12.22(6)
logβ^HL [1, 8]: 11.88(7)
logβ^HL [1, 9]: 12.14(8)
logβ^HL [1, 10]: 12.000(6)
logβ average value ([1]; L + 2H = LH2, t = 25 °C, potentiometry): 14.15(6)
logβ average value ([1]; L + H = LH, t = 25 °C, potentiometry): 11.74(2) ^1
logK^H2L [1, 3]: 2.56
logK^H2L [1, 4]: 2.653
logK^H2L [1, 5]: 2.76
logK^H2L ([1]; t = 25 °C, I = 0.15 mol L^-1 NaCl): 2.46
logK^H2L [1, 6]: 2.67
logK^H2L [1, 7]: 2.83
logK^H2L [1, 8]: 2.39
logK^H2L [1, 9]: 2.61
logK^H2L [1, 10]: 2.601
TΔS [2]: -4.78 kcal/mol
ΔG [2]: -3.39 kcal/mol
ΔH [2]: -34 kJ mol^-1 and −34(8) kJ mol^-1
Compound: Cc1ncc([N+](=O)[O-])n1CCO [MNZ, 2-Methyl-5-nitroimidazole-1-ethanol]
